# Measured values from patent US5736528A, “N^6 -(epoxynorborn-2-yl) adenosines as A1 adenosine receptor agonists” (priority 1995, dated 1998).
# Where two headings read alike, the source gives them in different places.
# Tests used:
# [1] = molecular target: T1, A1 receptor (Cavia porcellus, UniProt P47745); assay: Antagonism of A1 receptor-mediated negative dromotropic effect (S-H interval prolongation) of CCPA, Schild analysis, isolated perfused heart; design: species or system guinea pig; conditions: for Slope of Schild plot: mean ± S.E.M.
# T1 construct: isolated perfused guinea pig heart; from tissue; host or cells: isolated perfused guinea pig heart
# T1 sequence (P47745 1-326): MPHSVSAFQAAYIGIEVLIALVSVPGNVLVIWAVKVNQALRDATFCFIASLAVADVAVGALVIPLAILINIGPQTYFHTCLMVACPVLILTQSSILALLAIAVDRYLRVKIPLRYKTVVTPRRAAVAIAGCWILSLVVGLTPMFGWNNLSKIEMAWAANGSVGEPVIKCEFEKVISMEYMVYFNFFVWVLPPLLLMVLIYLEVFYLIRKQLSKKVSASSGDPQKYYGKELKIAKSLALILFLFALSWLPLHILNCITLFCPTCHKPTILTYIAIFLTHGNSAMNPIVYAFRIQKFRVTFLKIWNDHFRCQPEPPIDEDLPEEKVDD
# From the text: Potency of various alkylxanthines to antagonize A1
# cardiac response: results of Schild analysis.
# Cardiac response: antagonism of the negative dromotropic effect of the
# selective A1 agonist CCPA.
# [2] = molecular target: T2, A2 receptor (Cavia porcellus, UniProt P46616); assay: Antagonism of A2 receptor-mediated coronary vasodilation (coronary conductance) caused by adenosine, isolated perfused heart; design: species or system guinea pig
# T2 construct: isolated perfused guinea pig heart; from tissue; host or cells: isolated perfused guinea pig heart (coronary circulation)
# T2 sequence (P46616 whole entry, the tested form may be a part): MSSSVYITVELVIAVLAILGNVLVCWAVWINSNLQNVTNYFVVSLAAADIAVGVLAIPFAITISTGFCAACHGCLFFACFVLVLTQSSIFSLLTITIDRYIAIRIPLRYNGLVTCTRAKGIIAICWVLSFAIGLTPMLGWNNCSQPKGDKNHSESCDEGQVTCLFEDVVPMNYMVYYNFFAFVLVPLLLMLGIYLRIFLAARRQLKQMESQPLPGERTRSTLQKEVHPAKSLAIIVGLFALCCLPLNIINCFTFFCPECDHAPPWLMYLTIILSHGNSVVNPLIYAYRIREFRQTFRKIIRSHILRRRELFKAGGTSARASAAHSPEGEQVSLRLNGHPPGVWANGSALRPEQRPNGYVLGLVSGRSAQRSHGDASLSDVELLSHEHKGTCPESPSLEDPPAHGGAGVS
# From the text: The values are the mean±SEM from five guinea pig hearts.
# of a maximum coronary vasodilation caused by adenosine. Values in
# [3] = molecular target: T1, A1 receptor; assay: S-H interval prolongation by adenosine in isolated heart, antagonism by ENX; design: species or system guinea pig
# From the text: The height of each bar graph presents the mean±SEM of 4 experiments.
# [4] = system: guinea pig hearts; assay: Left ventricular pressure and dP/dt (inotropic effect) in isolated hearts
# From the text: Identical results were obtained in three other hearts.
# [5] = system: phosphodiesterase; assay: Phosphodiesterase activity in homogenates of DDT1 MF-2 cells; assay type: biochemical; conditions: DDT1 MF-2 homogenate, 45 min, 30° C.
# Experimental: Cells were homogenized in 40 mM Tris buffer at pH 8.0, and the whole homogenate was used in the enzyme assays. PDE activity was determined by incubating homogenate (0.4 mg protein) in Tris buffer containing 20 mM MgCl2, 4 mM mercaptoethanol, 0.06 mg bovine serum albumin, 0.4 mM cAMP 130 nCi of [^3 H]cAMP and the indicated concentrations of ENX or IBMX for 45 min at 30° C. Blank incubations were carried out in parallel assays without the homogenate. At the end of the incubation, the suspensions were incubated in a boiling water bath for 2 minutes, transferred to an ice-water bath for 2 minutes and 0.1 mg of snake venom phosphodiesterase was added. The suspensions were incubated for 10 minutes at 30° C., and the adenosine formed was isolated by ion exchange chromatography. […] The amount of adenosine formed was linear over the incubation period used.
# [6] = system: negative dromotropic effect of carbachol or MgCl2; assay: Specificity: negative dromotropic effect of carbachol or MgCl2 in isolated heart; design: species or system guinea pig; conditions: ENX 2 nM, 2 μM
# From the text: The height of each bar graph presents the mean±SEM of 4 experiments. Only the S--H interval prolongation caused by adenosine was antagonized by ENX.
# [7] = molecular target: T1, A1 receptor; assay: A1 receptor binding with [3H]CPX in brain membranes (Table 4); design: species or system guinea pig
# From the text: Radioligand binding studies.
# (§2) Values are mean ± SEM of triplicate determinations in each
# of several (n) preparations.
# [8] = molecular target: T3, A1 receptor (Mesocricetus auratus, UniProt A0A1U8BVR4); assay: A1 receptor binding with [3H]CPX in intact DDT1 MF2 cells
# T3 sequence (A0A1U8BVR4 1-326): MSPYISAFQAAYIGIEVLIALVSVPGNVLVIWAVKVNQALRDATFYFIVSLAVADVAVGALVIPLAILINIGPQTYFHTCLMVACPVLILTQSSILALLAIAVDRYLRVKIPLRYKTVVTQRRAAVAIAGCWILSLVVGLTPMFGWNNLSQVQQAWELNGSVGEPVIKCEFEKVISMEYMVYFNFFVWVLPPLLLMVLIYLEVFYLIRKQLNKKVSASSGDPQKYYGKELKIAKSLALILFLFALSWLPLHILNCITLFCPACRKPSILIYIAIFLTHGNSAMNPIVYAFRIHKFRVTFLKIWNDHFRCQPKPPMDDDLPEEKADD
# From the text: Radioligand binding studies.
# as §2
# of several (n) preparations.
# [9] = molecular target: T4, A2 receptor (Rattus norvegicus, UniProt P30543); assay: A2 receptor binding with [3H]NECA in PC12 cell membranes; conditions: mean ± SEM (n), read-out: Ki, PC-12
# T4 construct: endogenous in cells; host or cells: PC12 cell membranes
# T4 sequence (P30543 whole entry): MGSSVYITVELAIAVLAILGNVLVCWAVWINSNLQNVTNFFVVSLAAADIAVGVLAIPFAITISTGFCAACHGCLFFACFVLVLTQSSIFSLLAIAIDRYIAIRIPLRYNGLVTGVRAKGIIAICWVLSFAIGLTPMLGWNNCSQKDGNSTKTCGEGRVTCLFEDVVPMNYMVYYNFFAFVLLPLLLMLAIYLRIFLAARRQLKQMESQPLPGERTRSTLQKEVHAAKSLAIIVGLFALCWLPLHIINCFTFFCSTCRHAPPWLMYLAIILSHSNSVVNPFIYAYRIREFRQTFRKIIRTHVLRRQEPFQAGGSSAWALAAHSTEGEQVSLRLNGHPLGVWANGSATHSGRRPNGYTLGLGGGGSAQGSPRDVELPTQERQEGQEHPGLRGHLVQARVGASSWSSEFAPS
# Experimental: Radioligand binding studies.
# A2 receptor binding was carried out with [^3 H]NECA in PC12 cell
# membranes. Values are mean ± SEM of triplicate determinations in each
# of several (n) preparations.
# [10] = molecular target: T5, A2 adenosine receptor (Cavia porcellus, UniProt P46616); assay: A2 receptor binding with [3H]CGS 21,860 in striatum membranes (Table 5); design: species or system guinea pig; conditions: mean ± S.E.M., read-out: K1, A2 (striatum)
# T5 construct: from tissue; host or cells: guinea pig striatum membranes
# T5 sequence (P46616 whole entry): as the sequence (P46616 whole entry, the tested form may be a part) above
# From the text: (§3) Values are mean ± S.E.M. of triplicate determinations in
# each of four preparations.
# [11] = molecular target: T6, rat brain adenosine A1 receptors (Rattus norvegicus, UniProt P25099); assay: Antagonism of radioligand binding to rat brain adenosine A1 receptors
# T6 construct: rat brain A1 adenosine receptors; from tissue; host or cells: rat brain
# T6 sequence (P25099 1-326): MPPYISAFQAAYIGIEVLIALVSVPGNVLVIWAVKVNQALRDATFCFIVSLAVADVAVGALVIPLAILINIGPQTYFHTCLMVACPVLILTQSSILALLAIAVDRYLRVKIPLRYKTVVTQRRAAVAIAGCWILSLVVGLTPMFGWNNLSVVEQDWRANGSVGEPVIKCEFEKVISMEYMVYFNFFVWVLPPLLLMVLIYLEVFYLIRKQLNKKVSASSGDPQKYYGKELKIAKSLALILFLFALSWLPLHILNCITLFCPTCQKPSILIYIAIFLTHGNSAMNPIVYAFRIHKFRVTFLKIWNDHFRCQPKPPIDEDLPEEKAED
# From the text: (§4) rat brain adenosine A1 and A2 receptors ("IC50 "* values)
# (§5) *"IC50 " refers to the concentration at which radioligand binding to
# receptors was 50% inhibited.
# [12] = molecular target: T7, rat brain adenosine A2 receptors (Rattus norvegicus, UniProt P30543); assay: Antagonism of radioligand binding to rat brain adenosine A2 receptors
# T7 construct: rat brain adenosine A1 and A2 receptors; from tissue; host or cells: rat brain
# T7 sequence (P30543 whole entry): as the sequence (P30543 whole entry) above
# From the text: as §4, §5
# receptors was 50% inhibited.
# [13] = system: rats; assay: Cumulative urine output (diuretic activity) in rats; assay type: in vivo, rat
# [14] = system: guinea pig tracheal muscle; assay: Relaxation of tracheal muscle
# From the text: (§1) However, that can be useful in treating conditions that indicate short-acting treatments.
# [15] = molecular target: T8, A1 adenosine receptor (Cavia porcellus, UniProt P47745); assay: A1 receptor binding with [3H]CPX in forebrain membranes (Table 5); design: guinea pig forebrain (A1 receptor); from tissue; host or cells: guinea pig forebrain membranes; species or system guinea pig
# From the text: as §3
# each of four preparations.
# [16] = molecular target: A1 adenosine receptor (Homo sapiens, UniProt P30542); assay: A1 adenosine receptor agonist potency and selectivity (summary); conditions: racemic isomers
# Sequence of A1 adenosine receptor (Homo sapiens, UniProt P30542) (P30542 whole entry): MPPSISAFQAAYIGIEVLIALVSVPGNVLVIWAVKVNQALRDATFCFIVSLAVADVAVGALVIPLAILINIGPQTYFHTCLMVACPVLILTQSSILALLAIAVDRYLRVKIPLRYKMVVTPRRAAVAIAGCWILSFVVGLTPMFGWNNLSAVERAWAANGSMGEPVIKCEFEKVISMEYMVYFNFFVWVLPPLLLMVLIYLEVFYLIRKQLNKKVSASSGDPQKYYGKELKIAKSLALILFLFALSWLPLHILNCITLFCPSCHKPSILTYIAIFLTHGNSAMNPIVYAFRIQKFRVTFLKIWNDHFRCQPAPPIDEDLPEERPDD
# [17] = molecular target: T9, A1-adenosine receptor (Mesocricetus auratus, UniProt A0A1U8BVR4); conditions: EC50, text to Table 8, DDT cells
# T9 sequence (A0A1U8BVR4 1-326): T3 sequence (A0A1U8BVR4 1-326)
# Experimental: (§6) The agonist compounds were tested for their potency to inhibit (-)isoproterenol stimulated cAMP accumulation in DDT1 MF-2 (DDT) cells. This effect is mediated through the action of the A1 -adenosine receptor (A1 AR).
# (§7) Cells were seeded at 0.2-1.0×10^4 cells/cm^2 and subcultured twice weekly after detachment using divalent cation-free phosphate-buffered saline containing 1 mM ethylenediamine tetraacetic acid (EDTA). Experiments were performed on cells that were grown to 1 day preconfluent.
# (§8) The potency of the A1 AR agonists was determined by their ability to inhibit (-)isoproterenol-stimulated cAMP accumulation. […] After cooling to room temperature, the tubes were centrifuged for 2 minutes at 10,000 g, and supernatants were saved.
# (§9) Briefly, an aliquot of the supernatant (50 μL) was incubated in a volume of 0.2 mL containing 25 mM Tris-HCl buffer (pH 7.0), 8 mM theophylline, 0.8 pmol [^3 H]cAMP (31.4 Ci/mmol, New England Nuclear) and 20 μg of bovine heart cAMP dependent protein kinase (Sigma Chemical Co.) at 4° C. for 1 hour. At the end of the incubation, 75 μl of a 50% (v/v) hydroxyapatite-water suspension was added to each tube followed by 4 ml of ice-cold 10 mM Tris-HCl buffer (pH 7.0). The suspension was then poured onto a Whatman GF/B glass fiber filter under reduced pressure, the filter was washed with a further 6 ml of ice-cold buffer, placed in a scintillation vial with 4 mL of Liquiscint (National Diagnostics), and the radioactivity determined in a liquid scintillation counter. The amount of cAMP in the samples was calculated from a standard curve using known concentrations of unlabeled cAMP.
# [18] = system: A1-adenosine receptor; conditions: 1 μM (-)isoproterenol
# Experimental: as §6, §7, §8, §9
# [19] = system: A1-adenosine receptor; conditions: 1 μM alone; 10 min
# Experimental: as §6, §7, §8, §9
# [20] = system: paroxysmal supraventricular tachycardia (PSVT); conditions: in vivo; cited from earlier work
# [21] = system: A2 adenosine receptor; assay: Hypotensive (A2) effect in whole animals; assay type: in vivo
# [22] = molecular target: T8, A1 adenosine receptor; assay: Slowing of A-V conduction (A1 effect) versus coronary vasodilation (A2 effect); design: slowing of A--V (A1 effect) conduction; from tissue
# [23] = molecular target: T10, rat brain A1 adenosine receptors (Rattus norvegicus, UniProt P25099); assay: Equilibrium dissociation constants for rat brain A1 adenosine receptors; assay type: binding; conditions: Table 6
# T10 construct: rat brain A1 adenosine receptors; from tissue; host or cells: rat brain
# [24] = molecular target: T11, A1 adenosine receptor (Rattus norvegicus, UniProt P25099); assay: Biological activity and duration of action of ENX enantiomers; assay type: in vivo; conditions: for duration of action: S- vs R-enantiomer
# T11 construct: from tissue; host or cells: whole animal
# T11 sequence (P25099 1-326): T6 sequence (P25099 1-326)
# [25] = Metabolism of ENX enantiomer; assay type: in vitro ADME
# [26] = system: serum cholesterol and heparin precipitating β-lipoproteins; assay: Serum cholesterol and heparin precipitating β-lipoproteins in mice; assay type: in vivo; conditions: 100 mg/kg per os
# [27] = system: hydrated rat; assay: Saluretic/kaluretic activity in hydrated rat; assay type: in vivo; conditions: 30 mg/kg per os
# From the text: as §1
smiles,measurement,setting,value
"CCCn1c(=O)c2[nH]c(C3CC4CC3C3OC43)nc2n(CCC)c1=O (racemic) [ENX, 1,3-dipropyl-8-{3-oxatricyclo[3.1.2.0^2,4]oct-6(7)-yl}-xanthine]",Kb,[1],3.6 nM
same,Slope of Schild plot,[1],-0.91 ± 0.06
same,IC50 for A2 receptor-mediated coronary vasodilation,[2],no effect
same,inhibition at 50 µM,[2]; read-out: inhibition of coronary vasodilation,0%
same,antagonism of S-H prolongation caused by adenosine,"[3]; ENX 2 nM, 2 μM, adenosine 4 μM",did antagonize
same,effect on S-H interval prolongation caused by adenosine,[3]; ENX 0.4 μM with adenosine 4 μM,completely inhibited
same,"stimulus-to-His bundle interval, ENX alone","[4]; ENX alone, up to 200 μM",no significant changes
same,LVP or dP/dt,"[4]; normoxic hearts, ENX 2-200 μM",no significant changes
same,phosphodiesterase inhibition,[5],does not inhibit phosphodiesterase
same,antagonism of negative dromotropic effect of carbachol or MgCl2,[6],did not antagonize
same,Ki,[7],0.45 ± 0.22 nM
same,Ki,[8],0.22 ± 0.03 nM
same,Ki,[9],11700 nM
same,Ki,[10],360 ± 36 nM
same,IC50,[11],1.65 nM
same,IC50,[12],2100 nM
same,diuretic potency compared with furosemide (Lasix),"[13]; rat, in vivo",at least as high as the potency of furosemide
same,tracheal smooth muscle relaxation / bronchodilation,[14],relax tracheal smooth muscle
same,Ki,[15],0.45 ± 0.13 nM
"OC[C@H]1O[C@@H](n2cnc3c(N[C@H]4C[C@@H]5C[C@H]4[C@H]4O[C@@H]54)ncnc32)[C@H](O)[C@@H]1O (relative stereo) [N^6-(endo-5,6-epoxynorborn-2-yl) adenosine]",A1 agonist potency and selectivity,[16],potent and highly selective agonists
same,EC50,[17],1 to 2 nM
"[O-][n+]1cnc2c(ncn2[C@@H]2O[C@H](CO)[C@@H](O)[C@H]2O)c1N[C@@H]1C[C@@H]2C[C@H]1[C@H]1O[C@@H]21 (relative stereo) [N^6-(exo-5,6-epoxynorborn-2-yl) adenosine-1-oxide]",EC50,[17],403 nM
"OC[C@H]1O[C@@H](n2cnc3c(N[C@@H]4C[C@@H]5C[C@H]4[C@H]4O[C@@H]54)ncnc32)[C@H](O)[C@@H]1O (relative stereo) [N^6-(exo-5,6-epoxynorborn-2-yl) adenosine]",A1 agonist potency and selectivity,[16],potent and highly selective agonists
same,EC50,[17],1 to 2 nM
"CC(C)NC[C@H](O)c1ccc(O)c(O)c1 [(-)Isoproterenol, reference compound]",stimulated cAMP accumulated,[18],458 ± 41 pmol cAMP formed per 10 minutes
same,cAMP accumulation increase above basal level,[19],57 fold
Nc1ncnc2c1ncn2[C@@H]1O[C@H](CO)[C@@H](O)[C@H]1O [Adenosine],effectiveness in terminating PSVT,[20],> 90%
"OC[C@H]1O[C@@H](n2cnc3c(NC4CCCC4)ncnc32)[C@H](O)[C@@H]1O [CPA, N^6 -cyclopentyladenosine, reference compound]",EC50,[17],1 to 2 nM
"Cn1c(=O)c2[nH]c(C3CCCC3)nc2n(C)c1=O [CPT, 8cyclopentyl-1,3-dimethylxanthine]",Ki,"[7]; read-out: Ki, Brain",41 ± 13 nM
"CCCn1c(=O)c2[nH]c(C3CCCC3)nc2n(CCC)c1=O [CPX, 8-cyclopentyl-1,3-dipropylxanthine]",Slope of Schild plot,[1],-0.81 ± 0.03
same,Ki,[8],0.13 ± 0.01 nM
"CC(C)Cn1c(=O)n(C)c(=O)c2[nH]cnc21 [IBMX, isobutylmethylxanthine, reference compound]",phosphodiesterase inhibition,[5],inhibits phosphodiesterase
"CCCn1c(=O)c2[nH]c(C34CC5CC(CC3C5)C4)nc2n(CCC)c1=O [NAX, 1,3dipropyl-8-(3-noradamantyl)xanthine]",Kb,"[1]; Schild analysis, numbers in parentheses are minimum and maximum KB values, read-out: KB, equilibrium dissociation constant",1.6 nM
same,Slope of Schild plot,[1],-0.89 ± 0.11
same,IC50,[2],7100 nM
same,Ki,"[7]; read-out: Ki, Brain",3.8 ± 0.21 nM
same,Ki,"[8]; read-out: Ki, DDT1 MF2",0.18 ± 0.05 nM
same,Ki,[10],22 ± 6.9 nM
"OC[C@H]1O[C@@H](n2cnc3c(N[C@H]4C[C@@H]5C[C@H]4[C@H]4O[C@@H]54)ncnc32)[C@H](O)[C@@H]1O [N^6-(2S-endo-5,6-epoxynorborn-2-yl) adenosine]",hypotensive (A2) effect,[21],no discernable hypotensive (A2) effect
same,potency for slowing of A-V conduction (A1) over coronary vasodilation (A2),[22],more than 100 fold
CCCn1c(=O)c2[nH]c([C@@H]3C[C@H]4C[C@@H]3[C@@H]3O[C@H]43)nc2n(CCC)c1=O [R-ENX],Ki,[23],2.1 nM
same,IC50,[11],2.7 nM
same,IC50,[12],2600 nM
same,tracheal smooth muscle relaxation / bronchodilation,[14],bronchodilators
same,relaxation of spontaneous tone in trachea,[14]; guinea pig trachea,induce relaxation of spontaneous tone
same,duration of action,[24],very short duration of action as compared to the S-enantiomer
same,metabolism,[25],rapidly degraded or metabolized
CCCn1c(=O)c2[nH]c([C@H]3C[C@@H]4C[C@H]3[C@H]3O[C@@H]43)nc2n(CCC)c1=O [S-ENX],Ki,[23],0.98 nM
same,IC50,[11],1.15 nM
same,IC50,[12],9000 nM
same,diuretic activity (cumulative urine output),"[13]; 0.1 mg/kg i.v., 2 hours, rats",more potent than the R-enantiomer of ENX or a racemic mixture of R-and S-enantiomers of ENX
same,tracheal smooth muscle relaxation / bronchodilation,[14],bronchodilators
same,relaxation of constricted tracheal muscle,"[14]; guinea pig, 100 mg/kg per os",relaxed constricted guinea pig tracheal muscle
same,serum cholesterol and heparin precipitating β-lipoproteins,[26],reduced serum cholesterol and heparin precipitating β-lipoproteins
same,kaluretic activity,[27],Moderate kaluretic activity
same,duration of action,[24]; listed as S-enantiomer,longer duration of action than the R-enantiomer
same,duration of action,[24]; listed as S-enantiomer of ENX,longer
same,share of the biological activity of racemic ENX,[24]; in vivo,80-90%
